Legend:
Type in all cases: in vivo, human
[1] = Pooled BLOOM and BLOSSOM Phase 3 studies: Week 52 outcomes by Week 12/Week 24 responder status, patients without T2DM
Procedure: APD356-009 (“BLOOM”) was a 104-week, placebo controlled study that assessed the safety and efficacy of lorcaserin 10 mg BID in overweight and obese patients, with concurrent behavior modification. The primary efficacy objective during Year 1 was to evaluate weight loss; the primary objective during Year 2 was to assess the ability of lorcaserin to maintain body weight loss that was achieved during Year 1. At study start, each patient received randomized, double blind treatment assignments for Year 1 and for Year 2 (all patients were given a new randomization number for Year 2 to assure that patients and study personnel remained blinded to treatment assignments). All patients assigned to placebo during Year 1 (50% of randomized population) remained on placebo in Year 2. Patients assigned to lorcaserin during Year 1 were randomly assigned to stay on lorcaserin during Year 2 (⅔ of Year 1 lorcaserin patients) or to switch to placebo (⅓ of Year 1 lorcaserin patients).
APD356-011 (“BLOSSOM”) was a 52-week, placebo controlled study that evaluated the effect of two lorcaserin doses (10 mg BID and 10 mg QD) on categorical and total weight loss with concurrent behavior modification. Patients were randomized in a ratio of 2:1:2 to lorcaserin 10 mg BID, 10 mg QD, or placebo.
(§1) An analysis of early weight loss was performed, at each visit after baseline through Week 24, as a predictor of ultimate weight loss success, as defined by achieving at least about 5% weight loss at 52 weeks, or at least about 10% weight loss at 52 weeks.

[2] = BLOOM-DM (APD356-010) Phase 3 study: Week 52 outcomes by Week 12/Week 24 responder status, patients with type 2 diabetes mellitus
Procedure: APD356-010 (BLOOM-DM) was a 52-week, placebo controlled study that evaluated the effect of two lorcaserin doses (10 mg BID and 10 mg QD) on categorical and total weight loss with concurrent behavior modification in 604 patients with type 2 diabetes mellitus managed with oral hypoglycemic agents. Randomization to the 10 mg once daily group was halted by protocol amendment in order to accelerate enrollment, resulting in final group sizes of 253 (placebo), 95 (lorcaserin QD) and 256 (lorcaserin BID).
as §1
Table 3 and Table 4 provide the sensitivity, specificity, positive predicted value (PPV) and negative predictive value (NPV) at Weeks 12 and 24 for at least about 5% and at least about 10% weight loss at Week 52 in different studies. The rounded percent weight loss at Week 12 for at least 5% and at least about 10% weight loss at Week 52 are about 5% and about 6%, respectively. Using the about 6% weight loss at Week 12 as a criterion enhances the PPV for both about 5% and about 10% categorical weight loss at Week 52, but at the expense of excluding about 10% and about 4% more of the about 5% categorical responders at Week 52 in patients without and with diabetes, respectively, based upon NPV. The rounded optimal thresholds at Week 24 for at least about 5% and at least about 10% weight loss at Week 52 are about 6% and about 9%, respectively. Using the 9% weight loss criterion at Week 24 enhances the PPV for both about 5% and about 10% categorical weight loss at Week 52, but at the expense of excluding about 19% and about 9% more of the about 5% categorical responders at Week 52 in patients without and with diabetes, respectively, based upon NPV. As described below, if at least about a 5% weight loss criterion is applied, patients achieving this milestone will achieve an average of about 10.8% weight loss in patients without diabetes and about 9.1% weight loss in patients with diabetes at Week 52.
(§2) Tables 6 and 7, below, present weight loss, vital sign, and glycemic changes at Week 52 in pooled patients without diabetes, patients with T2DM, and pooled patients with impaired fasting glucose (IFG; ≧100 mg/dL) who were Week 12 responders.

[3] = Pooled patients with impaired fasting glucose (IFG) who were Week 12 responders: Week 52 outcomes
Procedure: as §2

[4] = Week 12 Responder (≧5% weight loss), MITT with LOCF, 10 mg BID
[5] = Week 12 responders without diabetes
[6] = Week 12 responders, patients without T2DM, 10 mg BID
[7] = all patients without T2DM, MITT-LOCF
[8] = percent change from baseline at Week 52, Week 12 responders, patients without T2DM, 10 mg BID
[9] = Week 12 responders, patients with T2DM, 10 mg BID
[10] = all patients with T2DM, MITT-LOCF
[11] = percent change from baseline at Week 52, Week 12 responders, patients with T2DM, 10 mg BID
[12] = Week 12 responders with impaired fasting glucose (IFG) at baseline
[13] = Week 12 responders, patients with IFG, 10 mg BID
[14] = percent change from baseline at Week 52, Week 12 responders, patients with IFG, 10 mg BID

Substance: (R)-8-chloro-1-methyl-2,3,4,5-tetrahydro-1H-3-benzazepine hydrochloride salt hemihydrate [drug]
- Week 52 Weight 5% Responder [1, 4]: 86%
- Week 52 Weight 10% Responder [1, 4]: 50%
- Week 52 reduction in diastolic blood pressure [1, 5]: 2.5 mmHg
- Week 52 reduction in heart rate [1, 5]: 2.5 BPM
- Week 52 reduction in systolic blood pressure [1, 5]: 3.4 mmHg
- A1C W52 Change [1, 6]: −0.18%
- DBP W52 Change [1, 6]: −2.5 mmHg
- FPG W52 Change [1, 6]: -2.2 mg/dL
- Heart Rate W52 Change [1, 6]: −2.5 bpm
- SBP W52 Change [1, 6]: −3.4 mmHg
- Weight Loss ≧5% (%) at W52 [1, 6]: 85.5%
- Weight Loss ≧10% (%) at W52 [1, 6]: 49.8%
- proportion achieving ≧5% weight loss at Week 52 [1, 7]: 47%
- weight loss at Week 52 [1, 7]: 5.8 kg
- Week 12 Responder (at least 5% weight loss at Week 12), percentage of patients ([1]; of patients with observed Week 12 data, without diabetes, 10 mg BID): 49.3%
- HDL-C (mg/dL)* W52 Change [1, 8]: 4.6%
- LDL-C (mg/dL)* W52 Change [1, 8]: 1.1%
- Total Cholesterol (mg/dL)* W52 Change [1, 8]: −1.7%
- Triglycerides (mg/dL)* W52 Change [1, 8]: −14.5%
- Week 52 Weight 5% Responder [2, 4]: 71%
- Week 52 Weight 10% Responder [2, 4]: 36%
- Week 52 reduction in diastolic blood pressure ([2]; Week 12 responders with T2DM): 1.9 mmHg
- Week 52 reduction in heart rate ([2]; Week 12 responders with T2DM): 3.2 BPM
- Week 52 reduction in systolic blood pressure ([2]; Week 12 responders with T2DM): 2.6 mmHg
- A1C W52 Change [2, 9]: −1.2%
- DBP W52 Change [2, 9]: −1.9 mmHg
- FPG W52 Change [2, 9]: -29.3 mg/dL
- Heart Rate W52 Change [2, 9]: −3.2 bpm
- SBP W52 Change [2, 9]: −2.6 mmHg
- Weight Loss ≧5% (%) at W52 [2, 9]: 70.5%
- Weight Loss ≧10% (%) at W52 [2, 9]: 35.9%
- Weight W52 Change [2, 9]: -9.3 kg
- proportion achieving ≧5% weight loss at Week 52 [2, 10]: 38%
- weight loss at Week 52 [2, 10]: 4.7 kg
- Week 52 reduction in A1C ([2]; diabetic Week 12 responders): 1.2%
- Week 52 reduction in FPG ([2]; diabetic Week 12 responders): 29.3 mg/dL
- Week 12 Responder (at least 5% weight loss at Week 12), percentage of patients ([2]; of patients with observed Week 12 data, type 2 diabetes, 10 mg BID): 35.9%
- HDL-C (mg/dL)* W52 Change [2, 11]: 8.8%
- LDL-C (mg/dL)* W52 Change [2, 11]: 1.4%
- Total Cholesterol (mg/dL)* W52 Change [2, 11]: −0.7%
- Triglycerides (mg/dL)* W52 Change [2, 11]: −17.8%
- Week 52 reduction in A1C [3, 12]: 0.4%
- Week 52 reduction in FPG [3, 12]: 7.8 mg/dL
- A1C W52 Change [3, 13]: −0.11%
- DBP W52 Change [3, 13]: −1.5 mmHg
- FPG W52 Change [3, 13]: -7.8 mg/dL
- Heart Rate W52 Change [3, 13]: −3.7 bpm
- SBP W52 Change [3, 13]: −1.7 mmHg
- Weight Loss ≧5% (%) at W52 [3, 13]: 88.8%
- Weight Loss ≧10% (%) at W52 [3, 13]: 52.4%
- Weight W52 Change [3, 13]: -11.2 kg
- HDL-C (mg/dL)* W52 Change [3, 14]: 2.1%
- LDL-C (mg/dL)* W52 Change [3, 14]: 2.5%
- Total Cholesterol (mg/dL)* W52 Change [3, 14]: −2.3%
- Triglycerides (mg/dL)* W52 Change [3, 14]: −15.5%
